According to patent US10770169B2, “Method of providing a treatment to a subject based on a dynamic pathway map” (THE REGENTS OF THE UNIVERSITY OF CALIFORNIA, priority 2010, dated 2020):
Read-outs that look alike come from different tables or passages of the source.

Columns and labels:
Format in all cases: cell-based, human
[1] = tested on: breast cancer cell lines with aberrant vs normal copy number; assay: Association of recurrent copy number changes and response (t-test on GI50); conditions: FDR p<0.2
Summary of the method: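 A t-test compared GI50 between cell lines with high amplification at 8q24 (MYC), 11q13 (CCND1) or 20q13 (STK15/AURKA) and lines with low or no amplification, grouped together. Lines whose GI50 equalled the maximum concentration tested were excluded. Compounds with any group under five samples were also excluded.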

[2] = tested on: luminal, basal, claudin-low and ERBB2AMP breast cancer cell lines; assay: Associations of clinically relevant subtypes and response (non-parametric ANOVA or t-test on GI50 ranks)
Summary of the method: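 Significance was set at FDR p<0.20 after combining p-values across three test sets. Subtype–response associations came from rank-based non-parametric ANOVA or t-tests on GI50. For three-class comparisons, post-hoc tests of each group against the rest identified the most sensitive group, with FDR correction.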

[3] = tested on: panel of 55 breast cancer cell lines; assay: Cell growth inhibition assay (Cell Titer Glo, 72 h, 9 doses; GI50, TGI, LC50); conditions: Homo sapiens, read-out: GI50 (converted)

Compound: C/C(=C\c1csc(C)n1)[C@@H]1C[C@@H]2O[C@]2(C)CCC[C@H](C)[C@H](O)[C@@H](C)C(=O)C(C)(C)[C@@H](O)CC(=O)N1 [Ixabepilone]
- association of response with homozygous deletion at 9p21 (CDKN2A) [1]: associated with response
- subtype-specific response (sensitivity by transcriptional subtype) ([2]; GI50 across subtypes): more active against basal and claudin-low cell lines
- Subtype specificity ([2]; Table 6, most sensitive subtype, FDR p<0.20): Basal + Claudin-low
- GI50 ([3]; 600MPE cell line, censored GI50 values): 5250 nM
- GI50 ([3]; AU565, AU565 cell line, censored GI50 values): 4.27 nM
- GI50 ([3]; AU565, cell line AU565): 4.27 nM
- GI50 ([3]; BT-20, BT20 cell line, censored GI50 values): 8.13 nM
- GI50 ([3]; BT-20, cell line BT20): 8.13 nM
- GI50 ([3]; BT-474, BT474 cell line, censored GI50 values): 8.32 nM
- GI50 ([3]; BT-474, cell line BT474): 8.32 nM
- GI50 ([3]; BT-483, BT483 cell line, censored GI50 values): 5370 nM
- GI50 ([3]; BT-483, cell line BT483): 5370 nM
- GI50 ([3]; BT-549, BT549 cell line, censored GI50 values): 6.03 nM
- GI50 ([3]; BT-549, cell line BT549): 6.03 nM
- GI50 ([3]; CAMA-1, CAMA1 cell line, censored GI50 values): 1 nM
- GI50 ([3]; CAMA-1, cell line CAMA1): 1 nM
- GI50 ([3]; HCC38, HCC38 cell line, censored GI50 values): 2.82 nM
- GI50 ([3]; HCC38, cell line HCC38): 2.82 nM
- GI50 ([3]; HCC70, HCC70 cell line, censored GI50 values): 1.41 nM
- GI50 ([3]; HCC70, cell line HCC70): 1.41 nM
- GI50 ([3]; HCC202, HCC202 cell line, censored GI50 values): 20000 nM
- GI50 ([3]; HCC202, cell line HCC202): 20000 nM
- GI50 ([3]; HCC1143, HCC1143 cell line, censored GI50 values): 9.77 nM
- GI50 ([3]; HCC1143, cell line HCC1143): 9.77 nM
- GI50 ([3]; HCC1187, HCC1187 cell line, censored GI50 values): 2.19 nM
- GI50 ([3]; HCC1187, cell line HCC1187): 2.19 nM
- GI50 ([3]; HCC1395, HCC1395 cell line, censored GI50 values): 12 nM
- GI50 ([3]; HCC1395, cell line HCC1395): 12 nM
- GI50 ([3]; HCC1419, HCC1419 cell line, censored GI50 values): 11000 nM
- GI50 ([3]; HCC1419, cell line HCC1419): 11000 nM
- GI50 ([3]; HCC1428, HCC1428 cell line, censored GI50 values): 58.9 nM
- GI50 ([3]; HCC1428, cell line HCC1428): 58.9 nM
- GI50 ([3]; HCC1500, HCC1500 cell line, censored GI50 values): 3.24 nM
- GI50 ([3]; HCC1500, cell line HCC1500): 3.24 nM
- GI50 ([3]; HCC1806, HCC1806 cell line, censored GI50 values): 4.9 nM
- GI50 ([3]; HCC1806, cell line HCC1806): 4.9 nM
- GI50 ([3]; HCC1937, HCC1937 cell line, censored GI50 values): 309 nM
- GI50 ([3]; HCC1937, cell line HCC1937): 309 nM
- GI50 ([3]; HCC1954, HCC1954 cell line, censored GI50 values): 1.95 nM
- GI50 ([3]; HCC1954, cell line HCC1954): 1.95 nM
- GI50 ([3]; HCC2185 cell line, censored GI50 values): 9120 nM
- GI50 ([3]; HCC3153 cell line, censored GI50 values): 6.17 nM
- GI50 ([3]; LY2 cell line, censored GI50 values): 6.03 nM
- GI50 ([3]; MCF7, MCF7 cell line, censored GI50 values): 0.363 nM
- GI50 ([3]; MCF7, cell line MCF7): 0.363 nM
- GI50 ([3]; MDA-MB-134-VI, MDAMB134VI cell line, censored GI50 values): 1.62 nM
- GI50 ([3]; MDA-MB-157, MDAMB157 cell line, censored GI50 values): 4.9 nM
- GI50 ([3]; MDA-MB-157, cell line MDAMB157): 4.9 nM
- GI50 ([3]; MDA-MB-231, MDAMB231 cell line, censored GI50 values): 0.457 nM
- GI50 ([3]; MDA-MB-231, cell line MDAMB231): 0.457 nM
- GI50 ([3]; MDA-MB-361, MDAMB361 cell line, censored GI50 values): 2.29 nM
- GI50 ([3]; MDA-MB-361, cell line MDAMB361): 2.29 nM
- GI50 ([3]; MDA-MB-415, MDAMB415 cell line, censored GI50 values): 8.13 nM
- GI50 ([3]; MDA-MB-415, cell line MDAMB415): 8.13 nM
- GI50 ([3]; MDA-MB-436, MDAMB436 cell line, censored GI50 values): 5.75 nM
- GI50 ([3]; MDA-MB-436, cell line MDAMB436): 5.75 nM
- GI50 ([3]; MDA-MB-453, MDAMB453 cell line, censored GI50 values): 7.76 nM
- GI50 ([3]; MDA-MB-453, cell line MDAMB453): 7.76 nM
- GI50 ([3]; MDA-MB-468, MDAMB468 cell line, censored GI50 values): 1.32 nM
- GI50 ([3]; MDA-MB-468, cell line MDAMB468): 1.32 nM
- GI50 ([3]; SK-BR-3, SKBR3 cell line, censored GI50 values): 10.5 nM
- GI50 ([3]; SK-BR-3, cell line SKBR3): 10.5 nM
- GI50 ([3]; SUM52PE, SUM52PE cell line, censored GI50 values): 2.95 nM
- GI50 ([3]; SUM52PE, cell line SUM52PE): 2.95 nM
- GI50 ([3]; SUM149PT, SUM149PT cell line, censored GI50 values): 5.5 nM
- GI50 ([3]; SUM149PT, cell line SUM149PT): 5.5 nM
- GI50 ([3]; SUM185PE, SUM185PE cell line, censored GI50 values): 8.51 nM
- GI50 ([3]; SUM185PE, cell line SUM185PE): 8.51 nM
- GI50 ([3]; SUM225CWN, SUM225CWN cell line, censored GI50 values): 20000 nM
- GI50 ([3]; SUM225CWN, cell line SUM225CWN): 20000 nM
- GI50 ([3]; SUM1315MO2, SUM1315MO2 cell line, censored GI50 values): 6.03 nM
- GI50 ([3]; SUM-159-PT, SUM159PT cell line, censored GI50 values): 6.92 nM
- GI50 ([3]; SUM-159-PT, cell line SUM159PT): 6.92 nM
- GI50 ([3]; T47D, T47D cell line, censored GI50 values): 7.94 nM
- GI50 ([3]; T47D, cell line T47D): 7.94 nM
- GI50 ([3]; UACC-812, UACC812 cell line, censored GI50 values): 5890 nM
- GI50 ([3]; UACC-812, cell line UACC812): 5890 nM
- GI50 ([3]; UACC-893, UACC893 cell line, censored GI50 values): 6.31 nM
- GI50 ([3]; UACC-893, cell line UACC893): 6.31 nM
- GI50 ([3]; ZR-75-1, ZR751 cell line, censored GI50 values): 295 nM
- GI50 ([3]; ZR-75-1, cell line ZR751): 295 nM
- GI50 ([3]; cell line 600MPE): 5250 nM
- GI50 ([3]; cell line HCC2185): 9120 nM
- GI50 ([3]; cell line HCC3153): 6.17 nM
- GI50 ([3]; cell line LY2): 6.03 nM
- GI50 ([3]; cell line MDAMB134V): 1.62 nM
- GI50 ([3]; cell line SUM1315MO): 6.03 nM
